The record followed here is paper PMC11062922 (Nature Chemical Biology, 2023).

In one test the test system is MELK. Briefly: Kinobeads competition binding: MELK.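 Note: share of total target engagement due to this protein at one drug concentration.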 Also on record: species or system human. The note with it: target MELK.
For a further test, the target named is T1, AXL (Homo sapiens, UniProt P30530).
T1 construct: endogenous in cells
T1 sequence (P30530 26-894): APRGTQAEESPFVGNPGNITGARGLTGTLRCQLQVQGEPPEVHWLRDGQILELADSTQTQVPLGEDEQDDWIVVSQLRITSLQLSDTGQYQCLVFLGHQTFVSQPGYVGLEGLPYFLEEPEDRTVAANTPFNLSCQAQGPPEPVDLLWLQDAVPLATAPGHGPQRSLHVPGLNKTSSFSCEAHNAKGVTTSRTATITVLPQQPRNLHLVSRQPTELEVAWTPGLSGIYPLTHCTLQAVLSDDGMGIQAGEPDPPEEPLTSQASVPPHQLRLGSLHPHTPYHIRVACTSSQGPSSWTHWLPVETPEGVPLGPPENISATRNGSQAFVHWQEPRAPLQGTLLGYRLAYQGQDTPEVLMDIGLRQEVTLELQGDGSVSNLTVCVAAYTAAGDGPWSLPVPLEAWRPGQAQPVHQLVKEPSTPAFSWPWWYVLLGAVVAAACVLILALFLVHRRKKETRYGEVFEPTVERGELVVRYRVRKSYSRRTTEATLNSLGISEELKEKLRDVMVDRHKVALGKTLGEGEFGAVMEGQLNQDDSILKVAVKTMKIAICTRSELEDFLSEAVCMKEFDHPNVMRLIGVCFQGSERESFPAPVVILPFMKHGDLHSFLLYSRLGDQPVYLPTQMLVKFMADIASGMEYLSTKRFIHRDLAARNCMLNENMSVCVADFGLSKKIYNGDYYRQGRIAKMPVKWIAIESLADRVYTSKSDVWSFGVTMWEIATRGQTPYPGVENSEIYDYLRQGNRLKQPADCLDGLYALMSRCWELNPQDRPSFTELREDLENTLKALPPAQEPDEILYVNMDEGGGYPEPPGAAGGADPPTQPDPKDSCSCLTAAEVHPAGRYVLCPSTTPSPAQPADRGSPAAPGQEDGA
In words: Kinobeads competition binding: AXL. The note with it: target AXL. The source says: Supplement 41589_2023_1459_MOESM4_ESM.xlsx, sheet "CATDS matrix" | column: AXL

Another test deals with ERBB3. In words: Kinobeads competition binding: ERBB3.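 Note: selectivity score: engagement of this protein divided by summed engagement of all targets.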 Also on record: species or system human. The following applies: target ERBB3.
For the next test, the system named is IRAK4. Briefly: Kinobeads competition binding: IRAK4. Also on record: species or system human. The note with it: target IRAK4.
The next test relates to MAP2K5. Briefly: Kinobeads competition binding: MAP2K5. The note with it: target MAP2K5. Also on record: species or system human.
In test [1] the test system is phosphorylation sites in RKO cells. Briefly: Drug-perturbed phosphoproteome analysis in RKO cells. The format is cell-based, human. The note with it: RKO cells, 1 µM for 1 hour. The source says: To be able to measure PKN3 activity in cells, bona fide substrates of the kinase would be needed but no such substrate has been conclusively validated yet. In search for such candidates, we compared the phosphoproteomes of RKO cells (human colorectal cancer cells expressing high PKN3 levels according to ProteomicsDB[53]) in response to the same three compounds (that only share PKN3 as a target), as well as THZ1 (a covalent inhibitor for which PKN3 is a reported off-target[51]) and in response to siRNA-mediated knockdown of PKN3 (Extended Data Fig. 9a,b). […] The respective numbers were far smaller for GSK949675A, GSK902056A (all four drugs used at 1 µM for 1 hour) or the siRNA experiment (48 h of knockdown; Fig. 5d, Extended Data Fig. 9d and Supplementary Table 5). Successful PKN3 knockdown (89 and 92% for 1 and 3 nM siRNA, respectively) was confirmed by parallel reaction monitoring (a quantitative mass spectrometry-based protein expression assay; Extended Data Fig. 10a).
For global phosphoproteomic analysis of PKN3 inhibitors, RKO cells were treated with 1 µM GSK949675A, THZ1, GSK902056A, SB-476429A or DMSO for 1 h in four biological replicates or PKN3 were knocked down as described. After treatment, cells were washed twice with PBS and lyzed by adding 300 µl of lysis buffer (40 mM Tris-HCl pH 7.6, 8 M Urea, EDTA-free protease inhibitor complete mini and phosphatase inhibitor cocktail). Lysates were sonicated (ten cycles, 30 s on, 30 s pause, at 4 °C) and subsequently cleared by centrifugation for 20 min at 21,000g at 4 °C. Protein concentration was determined by Bradford assay and 300 µg protein per condition was digested. After reduction with 10 mM DTT and alkylation of cysteine residues with 50 mM chloroacetamide, the Urea concentration was reduced to 1.5 M by adding […] of 40 mM Tris/HCl pH 7.6. Trypsin was added to a protease-to-protein ratio of 1:50 and digestion was performed over night at 37 °C and 700 r.p.m. on a thermoshaker. Samples were cooled down to room temperature and acidified to a pH < 3 with 0.5% trifluoroacetic acid (TFA) and desalted using 50 mg SepPak columns (Waters; wash solvent 0.07% TFA in deionized water; elution solvent 0.07% TFA, 50% ACN). Subsequently, samples were frozen at −80 °C and dried by vacuum centrifugation. Peptide concentrations were determined by NanoDrop 2000 spectrophotometer and peptide amounts were adjusted. Dried peptides were labeled with TMT6plex as published previously. […] Phosphopeptides were enriched using column based Fe-IMAC as described previously. Subsequently, phosphopeptides were separated into six fractions using high pH reversed-phase stage tips as described before. Samples were dried by vacuum centrifugation.
Nanoflow LC–MS/MS measurement of TMT-labeled phosphopeptides was performed using a Dionex Ultimate3000 nano HPLC coupled online to an Orbitrap Fusion Lumos Tribride (Thermo Fisher Scientific) mass spectrometer. Peptides were delivered to a trap column (75 μm × 2 cm, packed in house with 5 μm C18 resin; Reprosil-Pur AQ, Dr. Maisch) and washed for 10 min with 0.1% FA at a flow rate of 5 μl min^−1. […] MS1 spectra were recorded in the Orbitrap from 360 to 1,300 m/z at a resolution of 60,000 using an AGC target value of 4 × 10^5 charges and a maximum injection time of 20 ms. MS2 spectra were recorded in the Orbitrap at 15,000 resolution after HCD fragmentation using 35% NCE, an AGC target value of 5 × 10^4, maximum injection time of 22 ms and an isolation width of 0.7 m/z. The first mass was fixed to 100 m/z. The number of MS2 spectra was limited by a top ten method. For TMT quantification, an additional MS3 spectrum was acquired in the Orbitrap over a scan range of 100–1,000 m/z at 15,000 resolution (AGC of 1 × 10^5, maximum injection time of 50 ms). For this, fragment ions were selected by multi-notch isolation in the Quadrupole, allowing a maximum of ten notches and subsequently fragmentation by HCD at 55% NCE. Dynamic exclusion was set to 90 s. […]

Take `Nc1ncnc2[nH]c(-c3ccccc3)nc12` [AH5015_KCGS]: the CATDS with MELK, at AXL, in the test with ERBB3, with IRAK4 and with MAP2K5 was 0 throughout.

`CCn1c(-c2nonc2N)nc2c(C#CC(C)(C)O)nc(OCCNC)cc21` [GSK949675A]: the “number of perturbed phosphorylation sites” value (“number” for short) in test [1] is on record as “far smaller”.

As for `NCc1ccc(-c2nc(-c3ccncc3)c(-c3ccc(Cl)c(O)c3)[nH]2)cc1` [SB-476429-A], in test [1], the “PKN3 activation loop p sites (S544 and T550)” value is “substantial reduction”; the “number” value is “a large number of p sites”.

Regarding `CCc1cc2c(cc1N1CCC(N3CCOCC3)CC1)C(C)(C)c1[nH]c3cc(C#N)ccc3c1C2=O` [Alectinib], the CATDS in the test on MELK, on AXL, in the test with ERBB3, in the test with IRAK4 and with MAP2K5 was 0 in each case.

Turning to `N#CC1(c2ccc(NC(=O)c3cccnc3NCc3ccncc3)cc2)CCCC1` [Apatinib], the CATDS in the test with MELK, on AXL, in the test with ERBB3, in the test with IRAK4 and with MAP2K5 was 0 throughout.

As for `CCn1c(-c2nonc2N)nc2c(C#CC(C)(C)O)nc(OCCN)cc21` [GSK902056A], the “number” value in test [1] is reported as “far smaller”.

As for `CCN1CCN(Cc2ccc(Nc3ncc(F)c(-c4cc(F)c5nc(C)n(C(C)C)c5c4)n3)nc2)CC1` [Abemaciclib], the CATDS in the test on MELK, at AXL, with ERBB3, in the test on IRAK4 and with MAP2K5 was 0 throughout.

The compound `CN(C)C/C=C/C(=O)Nc1cc2c(Nc3ccc(F)c(Cl)c3)ncnc2cc1O[C@H]1CCOC1` [Afatinib] registered a CATDS at AXL of 0.
